# Experimental data: patent US20250381276A1, “SMALL MOLECULE CONJUGATED CHARGE-ALTERING RELEASABLE TRANSPORTERS FOR NUCLEIC ACID DELIVERY” (The Board of Trustees of the Leland Stanford Junior …, priority 2022, published 2025)
# Tested on: peripheral blood lymphocytes
# Experiment: Lymphocyte depletion assay (peripheral blood T and B cells)
# Assay type: in vivo, BALB/c mice
# Conditions: single i.v. dose, 24 hours vs baseline; FTY720 12.9 μg, mRNA 7.5 μg/mouse
# Procedure: For in vivo administration, CART formulations were prepared adding 18.75 μg of mRNA (18.75 uL of a 1 mg/mL stock) to 205 uL of PBS (pH 5.5) and to this 26.22 uL of CART (from a 2 mmol/L stock in DMSO) were added and mixed for 20 seconds. A total of 100 uL of this formulation was administered i.v. into the tail vein of each mouse, injecting two mice at a time per each treatment group and resulting in a final mRNA dose of 7.5 ug/mouse. CART formulations were injected immediately after mixing (within 20 s).
# Blood was drawn from the submandibular vein of the mice immediately before and 24 hours after treatment with Fluc mRNA-CART complexes prepared and administered as above. In both cases approximately 1 mL of venous blood was collected per mouse into FACS tubes pre-filled with 500 μL of Ca^2+-EDTA. […]
# One of the potential benefits of functionalizing an mRNA delivery vehicle with a small molecule is to exploit the biological properties of the small molecule for therapeutic purposes. […] Before treatment, mice were bled to measure the baseline levels of circulating T cells (CD3+) and B cells (B220+) calculated through flow cytometry as a percentage of the total peripheral blood lymphocytes. The mice were then bled 24 hours after treatment and the levels of peripheral T and B lymphocytes were measured again (FIG. 5). […]
smiles,measurement,value
"CCCCCCCCc1ccc(CCC(N)(CO)CO)cc1 [FTY720, fingolimod]",Reduction in the percentage of circulating T cells (CD3+),84%
